The values that follow come from patent US9481648B2, “Kinase inhibitors” (Respivert Limited, priority 2013, dated 2016).

The term IC50 denotes the concentration at which inhibition is half-maximal.

The test system of assay [1] is β-catenin in d-U937 cells. Put plainly: Accumulation of β catenin in d-U937 cells (assay m). Type of assay: cell-based, human. Put shortly:
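U937 cells were differentiated with PMA (100 ng/mL) for 48–72 hr, then treated with compound or vehicle for 18 hr. After formaldehyde fixation, β-catenin was detected with a primary antibody and an HRP secondary using TMB (OD450–655). Signal was normalised to crystal violet cell staining (OD595).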

Another assay concerns the target p38 MAPKα (MAPK14) (Homo sapiens (Human), UniProt Q16539). The assay can be described thus: p38 MAPKα enzyme inhibition (FRET, Z-LYTE; Method 2). It is filed as biochemical.
The target of the next assay is GSK 3α (Homo sapiens (Human), UniProt P49840). The assay can be described thus: GSK 3α enzyme inhibition (FRET, Z-LYTE; Method 2). It is filed as biochemical. Conditions: read-out: IC50 Values for Enzyme Inhibition GSK3α. Put shortly:
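Phosphorylation was taken from the donor (coumarin) to acceptor (fluorescein) emission ratio after 1 h protease development, which cleaves only unphosphorylated peptide. Before that, peptide (8 μM stock) plus ATP (40 μM stock) reacted 1 h. This followed a 105 min RT preincubation of GSK3-α with compound stocks of 10–0.01 μg/mL.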

The next assay deals with c-Src (Homo sapiens (Human), UniProt P12931). The assay can be described thus: c-Src enzyme inhibition (FRET, Z-LYTE). Type of assay: biochemical. Put shortly: (§1)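 Syk or c-Src enzyme (3000 or 2000 ng/mL solutions) was preincubated 2 h at RT with compound solutions at 1, 0.1, 0.01 or 0.001 µg/mL. Z-LYTE FRET peptide (8 µM solution) and ATP (800 µM solution for c-Src, 60 µM for Syk) were then added for 1 h, followed by protease development for 1 h. Phosphorylation was read as the coumarin/fluorescein emission ratio.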

The next assay concerns the target Syk (Homo sapiens (Human), UniProt P43405). Put plainly: Syk enzyme inhibition (FRET, Z-LYTE). It is filed as biochemical. An outline of the steps: as §1

Sequence of GSK 3α (P49840 whole entry): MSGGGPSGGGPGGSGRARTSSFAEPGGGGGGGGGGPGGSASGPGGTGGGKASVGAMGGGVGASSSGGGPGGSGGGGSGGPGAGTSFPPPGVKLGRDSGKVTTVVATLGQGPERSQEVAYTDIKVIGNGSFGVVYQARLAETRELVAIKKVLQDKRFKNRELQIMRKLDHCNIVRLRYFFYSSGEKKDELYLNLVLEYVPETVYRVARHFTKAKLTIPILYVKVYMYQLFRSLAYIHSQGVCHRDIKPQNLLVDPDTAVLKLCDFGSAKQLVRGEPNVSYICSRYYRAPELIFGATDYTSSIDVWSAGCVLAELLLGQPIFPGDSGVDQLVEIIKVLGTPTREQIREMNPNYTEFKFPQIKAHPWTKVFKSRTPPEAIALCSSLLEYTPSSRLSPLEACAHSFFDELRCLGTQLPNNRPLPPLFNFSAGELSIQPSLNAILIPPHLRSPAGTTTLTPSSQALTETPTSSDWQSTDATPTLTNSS
Sequence of c-Src (P12931 whole entry, looked up): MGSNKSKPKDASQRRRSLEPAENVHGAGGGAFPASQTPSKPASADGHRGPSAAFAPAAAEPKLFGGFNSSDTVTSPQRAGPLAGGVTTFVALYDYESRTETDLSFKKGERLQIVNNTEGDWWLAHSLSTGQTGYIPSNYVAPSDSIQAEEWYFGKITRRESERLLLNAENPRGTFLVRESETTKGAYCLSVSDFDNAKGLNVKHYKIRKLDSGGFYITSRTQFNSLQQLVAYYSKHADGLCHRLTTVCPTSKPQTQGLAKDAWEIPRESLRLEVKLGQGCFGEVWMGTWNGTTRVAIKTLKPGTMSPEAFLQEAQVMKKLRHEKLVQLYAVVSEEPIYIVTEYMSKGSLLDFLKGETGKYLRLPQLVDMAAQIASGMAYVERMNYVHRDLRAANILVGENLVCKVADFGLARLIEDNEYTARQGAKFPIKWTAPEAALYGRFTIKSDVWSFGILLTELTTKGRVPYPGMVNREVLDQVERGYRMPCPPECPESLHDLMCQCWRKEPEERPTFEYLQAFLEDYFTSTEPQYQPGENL
Sequence of p38 MAPKα (MAPK14) (Q16539 whole entry): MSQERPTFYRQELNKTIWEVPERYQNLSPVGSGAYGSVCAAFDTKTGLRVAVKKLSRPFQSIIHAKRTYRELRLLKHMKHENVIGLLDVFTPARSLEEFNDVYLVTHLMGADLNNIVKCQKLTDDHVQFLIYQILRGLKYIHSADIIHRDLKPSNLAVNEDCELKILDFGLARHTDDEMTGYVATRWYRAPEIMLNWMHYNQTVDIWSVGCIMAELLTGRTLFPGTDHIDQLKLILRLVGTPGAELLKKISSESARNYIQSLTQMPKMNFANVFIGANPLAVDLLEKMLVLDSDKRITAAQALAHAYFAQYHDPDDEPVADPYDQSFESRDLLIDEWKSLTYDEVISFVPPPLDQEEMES

Turning to `C#Cc1cc(Nc2cc(Oc3ccc(NC(=O)Nc4cc(C(C)(C)C)cc(C(=O)NC)c4OC)c4ccccc34)ccn2)cc(C(=O)NCCN2CCOCC2)c1` [Example 39, 5-(tert-Butyl)-3-(3-(4-((2-((3-ethynyl-5-((2-morpholinoethyl)carbamoyl)phenyl)amino)-pyridin-4-yl)oxy)naphthalen-1-yl)ureido)-2-methoxy-N-methylbenzamide], the “% β-catenin induction” value in assay [1] (test compound 1 μg/mL) is on record as −11%; in assay [1] (test compound 5 μg/mL) it was −12%; in assay [1] (test compound 10 μg/mL), −18%. Further, the concentration for half-maximal inhibition (IC50) worked out at 0.14 µM against p38 MAPKα (MAPK14), 1.6 µM on GSK 3α, 0.029 µM against c-Src and 0.571 µM at Syk.

In the case of `COCCOCCOCCOCCOCCOCCOCCOc1cc(Nc2cc(Oc3ccc(NC(=O)Nc4cc(C(C)(C)C)cc(NS(C)(=O)=O)c4OC)c4ccccc34)ccn2)cc(OC)c1` [Example 45, N-(3-(3-(4-((2-((3-(2,5,8,11,14,17,20-Heptaoxadocosan-22-yloxy)-5-methoxyphenyl)-amino)pyridin-4-yl)oxy)naphthalen-1-yl)ureido)-5-(tert-butyl)-2-methoxyphenyl)methanesulfonamide], the “% β-catenin induction” value in assay [1] (test compound 1 μg/mL) is reported as −4%; in assay [1] (test compound 5 μg/mL) it was −7%; in assay [1] (test compound 10 μg/mL), −14%. Also, the 50% inhibitory concentration (IC50) against p38 MAPKα (MAPK14) was 0.145 µM; at GSK 3α it was 2.16 µM; against c-Src, 0.039 µM; on Syk it was 0.455 µM.

Turning to `COCCOCCOCCOc1cc(Nc2nccc(Oc3ccc(NC(=O)Nc4cc(C(C)(C)C)cc(C(=O)NCCN(C)C)c4OC)c4ccccc34)n2)cc(OC)c1` [Example 46, 5-(tert-Butyl)-N-(2-(dimethylamino)ethyl)-2-methoxy-3-(3-(4-((2-((3-methoxy-5-(2-(2-(2-methoxyethoxy)ethoxy)ethoxyl)phenyl)amino)pyrimidin-4-yl)oxy)naphthalen-1-yl)ureido)-benzamide], the results for the “% β-catenin induction” value in assay [1] (test compound 1 μg/mL), in assay [1] (test compound 5 μg/mL) and in assay [1] (test compound 10 μg/mL) were −2%, 2% and −29%, respectively. In addition, the IC50 against p38 MAPKα (MAPK14) was determined as 0.11 µM; on GSK 3α, 0.636 µM; on c-Src it was 0.015 µM; at Syk, 0.02 µM.

On to `COc1cc(Nc2cc(Oc3ccc(NC(=O)Nc4cc(C(C)(C)C)cc(C(N)=O)c4OC)c4ccccc34)ccn2)cc(C(=O)NCCN2CCOCC2)c1` [Example 47, 3-((4-((4-(3-(5-(tert-Butyl)-3-carbamoyl-2-methoxyphenyl)ureido)naphthalen-1-yl)oxy)pyridin-2-yl)amino)-5-methoxy-N-(2-morpholinoethyl)benzamide], for which the “% β-catenin induction” value is −5% in assay [1] (test compound 1 μg/mL), 4% in assay [1] (test compound 5 μg/mL) and 8% in assay [1] (test compound 10 μg/mL). In addition, the 50% inhibitory concentration (IC50) on p38 MAPKα (MAPK14) is 0.092 µM; at GSK 3α it was 1.6 µM; on c-Src it was 0.015 µM; against Syk it was 0.169 µM.

Consider `C#Cc1cc(Nc2cc(Oc3ccc(NC(=O)Nc4cc(C(C)(C)C)cc(C(N)=O)c4OC)c4ccccc34)ccn2)cc(C(=O)NCCN2CCOCC2)c1` [Example 48, 3-((4-((4-(3-(5-(tert-Butyl)-3-carbamoyl-2-methoxyphenyl)ureido)naphthalen-1-yl)oxy)pyridin-2-yl)amino)-5-ethynyl-N-(2-morpholinoethyl)benzamide], for which the “% β-catenin induction” value in assay [1] (test compound 1 μg/mL) is −2%; in assay [1] (test compound 5 μg/mL) it was −4%; in assay [1] (test compound 10 μg/mL), −3%. Further, the IC50 stood at 0.229 µM at p38 MAPKα (MAPK14), 5.03 µM on GSK 3α, 0.045 µM against c-Src and 0.49 µM against Syk.

For the molecule `C#Cc1cc(Nc2cc(Oc3ccc(NC(=O)Nc4cc(C(C)(C)C)cc(NS(C)(=O)=O)c4OC)c4ccccc34)ccn2)cc(C(=O)NCCN2CCOCC2)c1` [Example 49, 3-((4-((4-(3-(5-(tert-Butyl)-2-methoxy-3-methylsulfonamido)phenyl)ureido)naphthalen-1-yl)oxy)pyridin-2-yl)amino-5-ethynyl-N-(2-morpholinoethyl)benzamide], the “% β-catenin induction” value is listed as −1% in assay [1] (test compound 1 μg/mL), −2% in assay [1] (test compound 5 μg/mL) and −5% in assay [1] (test compound 10 μg/mL). Further, the IC50 against p38 MAPKα (MAPK14) is 0.258 µM; on GSK 3α, 8.36 µM; at c-Src, 0.056 µM; against Syk, 1.22 µM.

Consider `COCCOCCOCCOc1cc(Nc2nccc(Oc3ccc(NC(=O)Nc4cc(C(C)(C)C)cc(C(=O)NC5COC5)c4OC)c4ccccc34)n2)cc(OC)c1` [Example 51, 5-(tert-Butyl)-2-methoxy-3-(3-(4-((2-((3-methoxy-5-(2-(2-(2-methoxyethoxy)ethoxy)-ethoxy)phenyl)amino)pyrimidin-4-yl)oxy)naphthalen-1-yl)ureido)-N-(oxetan-3-yl)-benzamide], for which the “% β-catenin induction” value in assay [1] (test compound 1 μg/mL) is 3%; in assay [1] (test compound 5 μg/mL), 33%; in assay [1] (test compound 10 μg/mL) it was 29%. Further, the IC50 on p38 MAPKα (MAPK14) turned out to be 0.17 µM; on GSK 3α, 0.977 µM; against c-Src, 0.015 µM; against Syk, 0.049 µM.

Turning to `C#Cc1cc(Nc2cc(Oc3ccc(NC(=O)Nc4cc(C(C)(C)C)cc(NS(C)(=O)=O)c4OC)c4ccccc34)ccn2)cc(C(=O)NCCOCCOC)c1` [Example 52], the “% β-catenin induction” value was 2% in assay [1] (test compound 1 μg/mL), 9% in assay [1] (test compound 5 μg/mL) and 1% in assay [1] (test compound 10 μg/mL). Further, the IC50 against p38 MAPKα (MAPK14) was determined as 0.277 µM; at GSK 3α it was 12.6 µM; on c-Src it was 0.1 µM; at Syk, 1.26 µM.

Consider `C#Cc1cc(Nc2cc(Oc3ccc(NC(=O)Nc4cc(C(C)(C)C)cc(C(N)=O)c4OC)c4ccccc34)ccn2)cc(C(=O)NCCOCCOCCOC)c1` [Example 53, 3-((4-((4-(3-(5-(tert-Butyl)-3-carbamoyl-2-methoxyphenyl)ureido)naphthalen-1-yl)oxy)pyridin-2-yl)amino)-5-ethynyl-N-(2-(2-(2-methoxyethoxy)ethoxy)ethyl)benzamide], for which the “% β-catenin induction” value in assay [1] (test compound 1 μg/mL) is −1%; in assay [1] (test compound 5 μg/mL), 1%; in assay [1] (test compound 10 μg/mL) it was 2%. The concentration for half-maximal inhibition (IC50) against p38 MAPKα (MAPK14) was determined as 0.132 µM; on GSK 3α it was 8.78 µM; against c-Src, 0.046 µM; at Syk, 1.27 µM.

Regarding `C#Cc1cc(Nc2cc(Oc3ccc(NC(=O)Nc4cc(C(C)(C)C)cc(NS(C)(=O)=O)c4OC)c4ccccc34)ccn2)cc(C(=O)NCCOCCOCCOC)c1` [Example 54], the “% β-catenin induction” value in assay [1] (test compound 1 μg/mL) is reported as 5%; in assay [1] (test compound 5 μg/mL), 5%; in assay [1] (test compound 10 μg/mL), −2%. The IC50 against p38 MAPKα (MAPK14) worked out at 0.14 µM; on GSK 3α, 11.9 µM; at c-Src, 0.042 µM; against Syk, 1.19 µM.

As for `COCCOCCOCCOc1cc(Nc2nccc(Oc3ccc(NC(=O)Nc4cc(C(C)(C)C)cc(S(N)(=O)=O)c4OC)c4ccccc34)n2)cc(OC)c1` [Example 55, 5-(tert-Butyl)-2-methoxy-3-(3-(4-((2-((3-methoxy-5-(2-(2-(2-methoxyethoxy)ethoxy)-ethoxy)phenyl)amino)pyrimidin-4-yl)oxy)naphthalen-1-yl)ureido)benzenesulfonamide], the figures for the “% β-catenin induction” value in assay [1] (test compound 1 μg/mL), in assay [1] (test compound 5 μg/mL) and in assay [1] (test compound 10 μg/mL) were 11%, 23% and 45%, respectively. The half-maximal inhibitory concentration (IC50) against p38 MAPKα (MAPK14) was 0.157 µM; on GSK 3α, 2.37 µM; against c-Src it was 0.022 µM; against Syk, 0.131 µM.

On to `C#Cc1cc(Nc2nccc(Oc3ccc(NC(=O)Nc4cc(C(C)(C)C)cc(NS(C)(=O)=O)c4OC)c4ccccc34)n2)cc(C(=O)N[C@H](C)CN2CCOCC2)c1` [Example 56, (R)-3-((4-((4-(3-(5-(tert-Butyl)-2-methoxy-3-(methysulfonamido)phenyl)ureido)-naphthalen-1-yl)oxy)pyrimidin-2-yl)amino)-5-ethynyl-N-(1-morpholinopropan-2-yl)-benzamide], for which the results for the “% β-catenin induction” value in assay [1] (test compound 1 μg/mL), in assay [1] (test compound 5 μg/mL) and in assay [1] (test compound 10 μg/mL) were 3%, 13% and 14%, respectively. The half-maximal inhibitory concentration (IC50) on p38 MAPKα (MAPK14) worked out at 0.335 µM; at GSK 3α, 0.763 µM; at c-Src, 0.045 µM; against Syk it was 0.631 µM.

For `C#Cc1cc(Nc2nccc(Oc3ccc(NC(=O)Nc4cc(C(C)(C)C)cc(NS(C)(=O)=O)c4OC)c4ccccc34)n2)cc(C(=O)N[C@@H](C)CN2CCOCC2)c1` [Example 57, (S)-3-((4-((4-(3-(5-(tert-butyl)-2-methoxy-3-(methylsulfonamido)phenyl)ureido)-naphthalen-1-yl)oxy)pyrimidin-2-yl)amino)-5-ethynyl-N-(1-morpholinopropan-2-yl)benzamide], the figures for the “% β-catenin induction” value in assay [1] (test compound 1 μg/mL), in assay [1] (test compound 5 μg/mL) and in assay [1] (test compound 10 μg/mL) were 4%, 6% and 11%, respectively. In addition, the IC50 against p38 MAPKα (MAPK14) stood at 0.286 µM; on GSK 3α, 1.12 µM; against c-Src, 0.048 µM; on Syk, 0.706 µM.
